Reference: patent EP1975177B1, “An appetite-suppressing peptide, its compositions and use” (Novo Nordisk A/S, priority 1996, dated 2011)
Where a SMILES comes first, the peptide text is derived from it.

How the values were obtained:
mice = assay: Appetite suppression in mice, consumption of 20% sucrose solution; format: in vivo; conditions: intraperitoneal injection, 50 micrograms, in phosphate buffered saline
Protocol: Mice were deprived of their normal feed for two days and given free access to a 20% sucrose solution on the first day of feed deprivation. After the 2-day feed deprivation period, mice were injected intraperitoneally with 0.5ml of a solution containing the test substance. Thirty minutes after injection, individual mice were placed in one of eight 15 cm^2 test box with a stainless steel grid floor and a glass drinking tube which projected into the box. The drinking tube was connected to a reservoir containing a 20% sucrose solution, and the interior of the drinking tube contained an electrode enabling the detection of drinking contacts with the solution by measuring the flow of a weak (unnoticeable) electric current through mice by means of an electronic apparatus connected to the drinking tube electrode and the stainless steel grid floor. Consumption of the sucrose solution was measured over a 10 minute period by electronically recording the total amount of contact with the sucrose solution during the test session. The degree of appetite suppression produced by a given test substance was determined by statistical comparison of the duration of sucrose consumption by control (vehicle treated) mice with that of mice treated with a test substance. The degree of appetite suppression in a treated group of mice was expressed as percent of the control groups response. […]

fasted rats = conditions: cited from earlier work

## CC[C@H](C)[C@H](NC(=O)[C@H](Cc1ccccc1)NC(=O)[C@H](CC(=O)O)NC(=O)[C@H](CCCNC(=N)N)NC(=O)[C@@H](NC(=O)[C@H](C)NC(=O)[C@H](CC(C)C)NC(=O)[C@H](CC(N)=O)NC(=O)[C@H](CC(=O)O)NC(=O)[C@H](CC(C)C)NC(=O)[C@@H](NC(=O)[C@@H](NC(=O)[C@H](CC(N)=O)NC(=O)[C@H](CCSC)NC(=O)[C@H](CCC(=O)O)NC(=O)[C@H](CC(=O)O)NC(=O)[C@H](CO)NC(=O)[C@H](Cc1ccccc1)NC(=O)[C@H](CO)NC(=O)CNC(=O)[C@H](CC(=O)O)NC(=O)[C@H](C)NC(=O)[C@@H](N)Cc1c[nH]cn1)[C@@H](C)O)C(C)C)[C@@H](C)O)C(=O)N[C@@H](CC(N)=O)C(=O)N[C@@H](Cc1c[nH]c2ccccc12)C(=O)N[C@@H](CC(C)C)C(=O)N[C@@H](CC(C)C)C(=O)N[C@@H](Cc1c[nH]cn1)C(=O)N[C@H](C(=O)N[C@@H](CCCCN)C(=O)N[C@H](C(=O)N[C@H](C(=O)N[C@@H](CC(=O)O)C(=O)O)[C@@H](C)O)[C@@H](C)CC)[C@@H](C)O [synthetic porcine GLP-2, porcine GLP-2] (H-HADGSFSDEMNTVLDNLATRDFINWLLHTKITD-OH)
mice
  suppressed sucrose consumption: 38%

## GLP-1
Fasted rats; fasted rats, intracerebroventricular (ICV) administration
  feeding: inhibited feeding
Fasted rats; peripheral administration
  effect on feeding behaviour: no effect on feeding behaviour

## Glucagon
Fasted rats; fasted rats, intraperitoneal administration of pharmacological doses
  effect on food intake: no effect on food intake
